Experimental data published in patent US12540197B2, “Anti-tissue factor antibodies and antibody conjugates, compositions comprising anti-tissue factor antibodies or antibody conjugates, and methods of making and using anti-tissue factor antibodies and antibody conjugates” (SUTRO BIOPHARMA, INC., priority 2023, dated 2026).

Tested on: BxPC3 cells
Test: Secondary ADC cell killing assay (antibody + anti-human Fc nanobody conjugated to SC236) on BxPC3
Format: cell-based
Details: Table 15, scFv-Fc from SRP2842; nanobody-SC236 20 nM, 120 hrs
Description: The internalization ability of the lead antibodies was evaluated by an ADC cell killing assay on Tissue Factor positive BxPC3 cells. A total of 625 cells in a volume of 25 μL were seeded in each well of a 384-well flat bottom white polystyrene plate. Lead antibodies were formulated at 4-fold starting concentration in the cell culture medium and filtered through MultiScreenHTS 96-Well Filter Plates (Millipore; Billerica, Massachusetts). 12.5 μL of antibody was added into each treatment well, and 12.5 μL of anti-human Fc nanobody conjugated to SC236 was then added into each well at a fixed final concentration of 20 nM. Assay plates were cultured at 37° C. in a CO2 incubator for 120 hrs before assay. For cell viability measurement, 30 μL of Cell Titer-Glo® reagent (Promega Corp. Madison, WI) was added into each well, and plates were processed as per product instructions. Relative luminescence was measured on an ENVISION® plate reader (Perkin-Elmer; Waltham, MA). Relative luminescence readings were converted to percent viability using untreated cells as controls. Data was fitted with non-linear regression analysis, using a log (inhibitor) vs. response-variable slope, 4 parameter fit with GraphPad Prism (GraphPad v 5.0, Software; San Diego, California).

For Tisotumab, the “BxPC3 Cell Killing Span (%)” value was 94.7% and the EC50 was 23 pM.
